Here are results for three molecules from patent US7071163B2, “Compounds for targeting hepatocytes in vivo” (Mirus Bio Corporation, priority 2002, dated 2006).

In series [1] the test system is hepatocytes. Kind of series: Delivery of Cy3-streptavidin by biotinylated synthetic p17 peptide, monkey. Format: in vivo, Cyno monkey. Conditions: b107 says ratio 18:1, method b106 13:1, 10 min.
Method: A. Delivery of streptavidin (SA) by a biotinylated p17 peptide (MC893). […] Purified peptide was mixed with 250 μg of Cy3-labled SA (Jackson ImmunoResearch Laboratories, Inc. West Grove, Pa.) at peptide to SA molar ratios of 1.2:1, 9:1, 18:1, 45: 1, and 90:1 in a solution containing 25 mM HEPES, 125 mM NaCl, pH 8. The mixtures were injected into mice via the tail vein (400 μl injection volume). For monkey injection, 3.3 mg MC893 peptide was mixed with 3 mg of Cy3-SA, a 13:1 molar ratio, and purified using a G50 column. The sample was recovered in 12 ml 25 mM HEPES, 125 mM NaCl, pH 8 and slowly injected into a Cyno monkey via a subcutaneous vein in the arm. All animals were sacrificed 10 min after injection and liver samples were excised and frozen tissue sections prepared and placed onto microscopic slides. Air dried tissue sections were fixed and counterstained with Alexa 488 phalloidin and To-Pro-3 as previously described and analyzed by confocal microcopy.
Series [2] concerns hepatocytes. Kind of series: Delivery of Cy3-streptavidin by biotinylated synthetic p17 peptide, mouse. Conditions: peptide to SA molar ratio of 18:1, 10 min.
Method: Purified peptide was mixed with 250 μg of Cy3-labled SA (Jackson ImmunoResearch Laboratories, Inc. West Grove, Pa.) at peptide to SA molar ratios of 1.2:1, 9:1, 18:1, 45: 1, and 90:1 in a solution containing 25 mM HEPES, 125 mM NaCl, pH 8. The mixtures were injected into mice via the tail vein (400 μl injection volume). […] All animals were sacrificed 10 min after injection and liver samples were excised and frozen tissue sections prepared and placed onto microscopic slides. Air dried tissue sections were fixed and counterstained with Alexa 488 phalloidin and To-Pro-3 as previously described and analyzed by confocal microcopy.
The ability of biotin-peptide conjugates to target Cy3-labeled streptavidin to hepatocytes in mice is determined by confocal fluorescent microscopy as described above.
Series [3] concerns mouse hepatocytes. Kind of series: Delivery of biotinylated Cy3-dextran and Cy3-siRNA by MC892-SA conjugate. Format: in vivo. As for the experimental part: B. Delivery of biotinylated cargo by SA-p17 peptide conjugates. […] 2 mg SA was dissolved in 200 μl dH2O and added to a 200 μl 100 mM sodium phosphate/300 mM NaCl/2 mM EDTA, pH 7.2. A 10 mole equivalent of SPDP (Pierce) dissolved in DMF at 10 mg/ml was then added to the SA solution and mixed at RT for 1 h. The SPDP-modified streptavidin was then purified using a G-25 Sephadex column. It was determined that each SA molecule contained an average of 1.8 PDP groups based on a pyridine-2-thione assay. The SA-PDP conjugate was added to MC892 at a 1:18 molar ratio and incubated for 24 h at 4° C. The MC892-SA conjugates were purified on a G-25 Sephadex column. The sample was then freeze-dried and dissolved in a solution of 25 mM MES, 125 mM NaCl, pH 6.5 at 3 mg/ml.
One mg of NHS-PEG4-Biotin suspended in dry DMF at 10 mg/ml was added to 30 mg amino dextran (Molecular Probes, 70 kDa, 17.9 mole amine per polymer) that was dissolved in 0.1 M NaHCO3 at 10 mg/ml (molar ratio of 4.5 to 1). This solution was mixed overnight at room temperature, transferred into cellulose tubing (Fisher, 12–14,000 MWCO) and dialyzed once against 20 L 20 mM NH4Cl followed twice against 5 L dH20. The dialyzed sample was lyophilized. The sample was then dissolved in dH2O at 30 mg/ml. Each dextran polymer was estimated to contain an average of 0.5 biotin group. This biotinylated dextran was fluorescently labeled with Cy3-OSu (Amersham) at a weight ratio of 1:0.074. Excess free dye was removed using a Sephadex G-50 column. Labeled dextran was eluted in 25 mM NH4CO3. The sample was freeze dried and resuspended at 7.5 mg/ml in 25 mM HEPES/125 mM NaCl, pH 8.0. Biotinylated siRNA (5′-biotin-LC-siRNA, Dharmacon) was labeled with Cy3 using Cy3 LabelIT (Mirus Corp) according to manufacturer's instructions. […]
Liver samples were removed 10 min after injection, placed into OCT freezing medium and snap frozen in liquid nitrogen. […] Processed slides were mounted in Vectorshield (Vector Laboratories, Burlingame, Calif.) and analyzed using a Zeiss LSM510 confocal microscope.

In series [4] the test system is monkey hepatocytes. Kind of series: Targeting of recombinant p17 proteins to monkey hepatocytes. Conditions: 500 μg via subcutaneous vein in arm, 1 h. The series is classed as in vivo. As for the experimental part: 6. Targeting of recombinant p17 proteins to monkey hepatocytes. Recombinant full-length p17 proteins were prepared as previously described. Purified p17 proteins, 500 μg of p17-K211 or p17-E211 in 33 ml of PBS, were slowly injected into monkeys via subcutaneous vein in arm. Liver samples were excised 1 h after injection, submerged in O.C.T. freezing medium and snap frozen in liquid nitrogen. Frozen liver sections (5–7 μm) were prepared using a cryostat and air-dried. Immunofluorescence detection for p17 proteins was performed as described above. Liver sections from an uninjected monkey were used as a control. Images represent an area of 75 μm^2 from a flattened composite of 8 consecutive confocal optical sections (each 0.4 μm thick). P17 is seen in black, cell nuclei in gray, F-actin in gray near basolateral membranes and in near bile capillary membranes.

Peptide text beside a SMILES is read from it. * marks the point of attachment. Biotin = O=C1N[C@H]2[C@H](CS[C@H]2CCCCC(=O)*)N1; PEG4 = NCCOCCOCCOCCOCCC(=O)O

As for `C[C@H](NC(=O)[C@H](CCC(=O)O)NC(=O)[C@H](CC(=O)O)NC(=O)[C@H](CCCNC(=N)N)NC(=O)[C@H](Cc1ccccc1)NC(=O)CNC(=O)[C@H](CCCCN)NC(=O)[C@@H](NC(=O)[C@H](CCC(=O)O)NC(=O)[C@H](CC(=O)O)NC(=O)[C@H](CCCNC(=N)N)NC(=O)[C@H](Cc1c[nH]c2ccccc12)NC(=O)[C@H](CCC(N)=O)NC(=O)[C@H](CCCCN)NC(=O)[C@@H](NC(=O)[C@H](CC(N)=O)NC(=O)[C@@H](NC(=O)[C@H](C)NC(=O)[C@H](CC(N)=O)NC(=O)[C@@H](NC(=O)[C@H](CO)NC(=O)[C@H](CO)NC(=O)[C@H](CCC(=O)O)NC(=O)[C@H](CC(N)=O)NC(=O)[C@H](CCCCN)NC(=O)CCOCCOCCOCCOCCNC(=O)CCOCCOCCOCCOCCNC(=O)CCCC[C@@H]1SC[C@@H]2NC(=O)N[C@@H]21)[C@@H](C)O)[C@@H](C)O)[C@@H](C)O)[C@@H](C)O)C(=O)N[C@@H](CCCCN)C(=O)N[C@@H](CCCNC(=N)N)C(=O)N[C@@H](Cc1ccccc1)C(=O)N[C@@H](CCCCN)C(=O)N[C@@H](CC(N)=O)C(=O)N[C@H](C(=O)N[C@@H](C)C(=O)NCC(=O)O)[C@@H](C)O` [MC893] ({Biotin-PEG4-PEG4}-KNESSTNATNTKQWRDETKGFRDEAKRFKNTAG-OH), the “targeting of Cy3-SA to hepatocytes” value in series [1] and in series [2] was “efficiently targeted Cy3-SA to hepatocytes” each time.
Consider “Cys-PEG4-Lys-Asn-Glu-Ser-Ser-Thr-Asn-Ala-Thr-Asn-Thr-Lys-Gln-Trp-Arg-Asp-Glu-Thr-Lys-Gly-Phe-Arg-Asp-Glu-Ala-Lys211-Arg-Phe-Lys-Asn-Thr-Ala-Gly [MC892]”, for which the “Cy3-dextran signal in hepatocytes” value was “internalized Cy3-dextran signals found in clusters near cell nuclei” in series [3] (MC892-SA with biotinylated Cy3-dextran, 20 min (not shown)) and “high levels of Cy3-dextran signal was observed inside hepatocytes” in series [3] (MC892-SA with biotinylated Cy3-labeled 70 kDa dextran, 10 min after injection). Also, in series [3] (MC892-SA with biotinylated Cy3-siRNA, 10 min), the “targeting of Cy3-siRNA to liver” value is listed as “successful targeting of siRNA to the liver”.

B1: p17-K211: bacterially expressed His-tagged full-length wild-type T7 p17 tail fiber protein (SEQ ID 4) (protein)
chain: MGSSHHHHHHSSGLVPRGSHMANVIKTVLTYQLDGSNRDFNIPFEYLARKFVVVTLIGVDRKVLTINTDYRFATRTTISLTKAWGPADGYTTIELRRVTSTTDRLVDFTDGSILRAYDLNVAQIQTMHVAEEARDLTTDTIGVNNDGHLDARGRRIVNLANAVDDRDAVPFGQLKTMNQNSWQARNEALQFRNEAETFRNQAEGFKNESSTNATNTKQWRDETKGFRDEAKRFKNTAGQYATSAGNSASAAHQSEVNAENSATASANSAHLAEQQADRAEREADKLENYNGLAGAIDKVDGTNVYWKGNIHANGRLYMTTNGFDCGQYQQFFGGVTNRYSVMEWGDENGWLMYVQRREWTTAIGGNIQLVVNGQIITQGGAMTGQLKLQNGHVLQLESASDKAHYILSKDGNRNNWYIGRGSDNNNDCTFHSYVHGTTLTLKQDYAVVNKHFHVGQAVVATDGNIQGTKWGGKWLDAYLRDSFVAKSKAWTQVWSGSAGGGVSVTVSQDLRFRNIWIKCANNSWNFFRTGPDGIYFIASDGGWLRFQIHSNGLGFKNIADSRSVPNAIMVENE
modifications: His tag; Bacteriophage T7
Consider B1, for which the “liver localization of p17 protein in monkey” value in series [4] is on record as “efficiently targets to monkey hepatocytes”.
